Source: publication PMC7312527 (International Journal of Molecular Sciences, 2020)

Assays:
BuChE from equine serum = BuChE from equine serum (Equus caballus, UniProt P81908); assay: biochemical
[1] = molecular target: T1, AChE–BACE-1A protein pair (Homo sapiens, UniProt P22303+P56817); assay: Yeast three-hybrid (Y3H) test and β-galactosidase assay, AChE–BACE-1A; format: cell-based
T1 construct: pGBKT7-hAChE plasmid contained the cDNA fragment encoding for aa 52–577; N-terminal domain (aa 46–457) of BACE1A (GenBank: AF204943.1); host or cells: Saccharomyces cerevisiae Y2HGold (bait) mated with Y187 (prey)
Procedure: The putative induction of interactions between hybrid ligands and five selected proteins was evaluated by the Y3H method. […]. The company maintained cDNA synthesis and cloning of inserts in a proper frame, such as the NdeI/BamHI fragments into the pGBKT7 (AChE) or pGADT7 (A4, BACE1A, MAO B, MAPT) vectors. Moreover, the yeast codon optimization was realized to facilitate the high expression of human recombinant proteins in Saccharomyces cerevisiae. The cDNA encoding for human AChE (GenBank M55040.1) was modified by removing the fragments for a signal peptide (aa 1–51) and the domain responsible for protein tetramerization (aa 578–611). […]
The putative protein–protein interactions between bait (AChE) and the four preys (A4, BACE1A, MAO B, and MAPT) were analyzed by the small-scale mating procedure (5mL) based on the Matchmaker Gold yeast two-hybrid system manual recommendations. […]
The yeast β-galactosidase assay kit (ThermoFisher Scientific, USA) was applied to quantitatively analyze the strength of the hybrid-ligand induced interactions.
To evaluate the β-galactosidase activity in the yeast culture, the yeast β-galactosidase microplate assay protocol (stopped) was used according to the manufacturer’s instructions. […] The optical densities at 660 nm and absorbance at 420 nm were evaluated by (Synergy H1, Biotek). In the quantitative β-galactosidase assay, the hybrid ligand 3c was used. […]

[2] = molecular target: T2, Amyloid β peptide (1–42) (Aβ42) (Homo sapiens, UniProt P05067); assay: Inhibition of self-induced Aβ42 aggregation (thioflavin-T assay); format: biochemical
T2 construct: Amyloid β peptide (1–42) (Aβ42) was purchased from Sigma Aldrich; purchased Sigma Aldrich

AChE from electric eel = AChE from electric eel (Electrophorus electricus, UniProt O42275); assay: biochemical
[3] = In vivo acute oral toxicity (OECD 423); settings: female, Balb/c, mouse, in vivo, mice, read-out: LD50 cut-off values
Procedure: (§1) Compound 3c was given orally (by gavage) in fixed doses, 5, 50, 300, or 2000 mg/kg body weight, at each stage of the study. Compound 3c was administered at an initial dose of 300 mg/kg, as its toxicity was unknown. According to the graph from the Organization for Economic Cooperation and Development (OCED) 423 guideline, six test stages might be performed. Three animals (female mice Balb/c) take part in each stage. The number of stages depends on the deaths of mice, which is the final test parameter. Results allowed for the classification of compound 3c into a Globally Harmonized Classification System for Chemical Substances and Mixtures (GHS) category. Moreover, the LD50 cut-off values were determined. The research was carried out on the basis of the agreement of the Local Ethical Committee for animal testing in Łódź No. 56/115 ŁB/2018. Compound 3c was administrated in a first dose of 300 mg/kg of body weight.
(§2) The testing protocol is as follows: After the initial dose of 300 mg/kg body weight, if 2–3 mice die, the compound is given at a lower dose (50 mg/kg). The lowest dose (5 mg/kg) is administrated if 2–3 animals die after the 50 mg/kg dose. If there are no deaths or only one mouse dies after administration of the 300 mg/kg dose, the compound is given again at the same dose (300 mg/kg). If there are no deaths again, the highest dose (2000 mg/kg) is given. After each dose, the mice are observed for 14 days. […]

female mice Balb/c = assay: In vivo acute oral toxicity (OECD 423)
Procedure: as §1, §2

SH-SY5Y cells = assay: Neuroprotection against oxidative stress induced by H2O2 (MTT); format: cell-based, human; settings: H2O2 100 µM

T2 sequence (P05067 672-713 limits assumed): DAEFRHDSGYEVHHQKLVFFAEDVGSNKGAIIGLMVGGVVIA
Sequence of AChE from electric eel (O42275 24-633): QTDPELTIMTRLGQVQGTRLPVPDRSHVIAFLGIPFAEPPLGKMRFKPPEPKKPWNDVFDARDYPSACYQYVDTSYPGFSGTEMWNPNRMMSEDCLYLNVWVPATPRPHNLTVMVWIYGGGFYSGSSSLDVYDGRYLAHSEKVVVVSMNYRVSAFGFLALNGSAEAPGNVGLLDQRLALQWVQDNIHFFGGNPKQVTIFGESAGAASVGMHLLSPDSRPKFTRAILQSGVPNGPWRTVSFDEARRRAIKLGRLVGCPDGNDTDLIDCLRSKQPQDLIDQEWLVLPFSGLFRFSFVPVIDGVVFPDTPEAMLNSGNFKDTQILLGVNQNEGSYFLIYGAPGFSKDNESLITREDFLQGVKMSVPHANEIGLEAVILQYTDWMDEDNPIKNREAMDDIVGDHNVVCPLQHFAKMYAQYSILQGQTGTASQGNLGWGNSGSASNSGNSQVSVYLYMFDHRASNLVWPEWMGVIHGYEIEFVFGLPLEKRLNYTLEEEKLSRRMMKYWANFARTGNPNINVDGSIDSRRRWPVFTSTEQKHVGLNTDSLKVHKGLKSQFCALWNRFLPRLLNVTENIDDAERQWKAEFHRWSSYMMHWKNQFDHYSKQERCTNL
Sequence of BuChE from equine serum (P81908 whole entry): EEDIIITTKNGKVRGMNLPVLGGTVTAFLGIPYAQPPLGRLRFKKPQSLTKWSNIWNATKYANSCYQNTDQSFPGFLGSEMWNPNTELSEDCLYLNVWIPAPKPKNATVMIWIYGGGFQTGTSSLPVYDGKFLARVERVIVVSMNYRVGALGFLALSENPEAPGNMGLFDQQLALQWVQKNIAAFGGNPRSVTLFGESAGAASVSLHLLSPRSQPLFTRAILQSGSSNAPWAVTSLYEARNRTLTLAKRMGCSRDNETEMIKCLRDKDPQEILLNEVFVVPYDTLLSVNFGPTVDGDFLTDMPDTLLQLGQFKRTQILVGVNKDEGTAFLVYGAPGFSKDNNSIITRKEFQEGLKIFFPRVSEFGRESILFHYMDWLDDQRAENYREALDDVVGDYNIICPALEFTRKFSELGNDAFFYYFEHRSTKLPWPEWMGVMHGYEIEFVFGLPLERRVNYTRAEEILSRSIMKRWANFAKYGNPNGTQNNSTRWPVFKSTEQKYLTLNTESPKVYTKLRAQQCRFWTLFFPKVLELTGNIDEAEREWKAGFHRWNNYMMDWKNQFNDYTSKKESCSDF
T1 sequence (P22303 52-577): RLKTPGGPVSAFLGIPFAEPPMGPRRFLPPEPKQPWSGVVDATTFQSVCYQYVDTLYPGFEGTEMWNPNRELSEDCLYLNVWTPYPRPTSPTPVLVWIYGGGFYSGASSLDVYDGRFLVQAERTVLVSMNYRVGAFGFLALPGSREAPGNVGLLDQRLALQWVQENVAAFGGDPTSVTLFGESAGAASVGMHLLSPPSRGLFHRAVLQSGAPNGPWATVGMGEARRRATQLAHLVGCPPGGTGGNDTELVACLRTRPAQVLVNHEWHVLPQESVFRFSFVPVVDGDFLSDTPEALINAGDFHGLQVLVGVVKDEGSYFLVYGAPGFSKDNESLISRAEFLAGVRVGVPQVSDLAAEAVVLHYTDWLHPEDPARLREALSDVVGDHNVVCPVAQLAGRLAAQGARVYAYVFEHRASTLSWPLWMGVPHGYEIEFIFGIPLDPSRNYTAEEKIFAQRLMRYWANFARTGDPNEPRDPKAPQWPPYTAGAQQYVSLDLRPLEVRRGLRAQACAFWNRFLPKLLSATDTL
T1 sequence (P56817 46-457): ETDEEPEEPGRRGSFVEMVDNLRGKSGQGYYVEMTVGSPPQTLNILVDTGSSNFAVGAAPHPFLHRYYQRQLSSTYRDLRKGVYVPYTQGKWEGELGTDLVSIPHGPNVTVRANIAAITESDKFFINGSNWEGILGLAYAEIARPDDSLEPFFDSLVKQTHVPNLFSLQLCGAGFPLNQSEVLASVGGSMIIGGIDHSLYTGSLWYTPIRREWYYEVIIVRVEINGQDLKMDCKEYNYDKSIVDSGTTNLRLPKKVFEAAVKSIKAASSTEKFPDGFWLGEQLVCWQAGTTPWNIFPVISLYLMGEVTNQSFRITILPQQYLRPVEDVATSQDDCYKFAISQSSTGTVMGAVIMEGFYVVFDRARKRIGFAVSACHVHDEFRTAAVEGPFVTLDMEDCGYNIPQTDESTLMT

O=C(NCCCCNc1c2c(nc3ccccc13)CCCC2)c1cc(Cl)cc(Cl)c1 [Compound 3c]
Selectivity for BuChE (BuChE from equine serum; IC50(AChE)/IC50(BuChE)): 0.206
IC50 (BuChE from equine serum; means ± SD of three independent experiments, read-out: EqBuChE IC50 ± SD): 123 ± 11 nM
hybrid ligand-mediated interaction AChE–BACE-1A (colonies on DDO/X/A plates) ([1]; 10 µM hybrid ligand): interaction between AChE and BACE-1 is mediated by hybrid ligand 3c
activity of β-galactosidase ([1]; AChE–BACE-1A, 10 μM ligand, yeast grown 96 h): 88.69 ± 2.57 units
Inhibition of Aβ aggregation ([2]; 5 µM): 23%
inhibition at 5 µM ([2]; 5 µM, read-out: Inhibition of Aβ aggregation): 23.5%
inhibition at 10 µM ([2]; 10 µM, read-out: Inhibition of Aβ aggregation): 24.3%
inhibition at 25 µM ([2]; 25 µM, read-out: Inhibition of Aβ aggregation): 25.8%
inhibition at 50 µM ([2]; 50 µM, read-out: Inhibition of Aβ aggregation): 26.7%
Inhibition of Aβ aggregation ([2]; 100 µM): 32%
inhibition at 100 µM ([2]; 100 µM, read-out: Inhibition of Aβ aggregation): 31.8%
Inhibition of Aβ42 aggregation ([2]; at all concentrations (5–100 µM)): more than 23%
Selectivity for AChE (AChE from electric eel; IC50 (BuChE)/IC50(AChE)): 4.864
IC50 (AChE from electric eel; means ± SD of three independent experiments, read-out: EeAChE IC50 ± SD): 25 ± 3 nM
LD50 at 14 days [3]: 500 mg/kg
GHS (Globally Harmonized System) Category (female mice Balb/c): 4
deaths (female mice Balb/c; 300 mg/kg, first and second stages): did not cause any deaths
deaths (female mice Balb/c; 2000 mg/kg, first stage): all three mice died
neuroprotection (SH-SY5Y cells; compound 0.01 µM): 46.17%
neuroprotection (SH-SY5Y cells; compound 0.1 µM): 36.48%
neuroprotection (SH-SY5Y cells; compound 1 µM): 0%
neuroprotection (SH-SY5Y cells; compound 10 µM): 0%
